Reference: patent US9120749B2, “Quinoline derivatives and MELK inhibitors containing the same” (ONCOTHERAPY SCIENCE, INC., priority 2010, dated 2015)
Counter-ions that a name gives are not always drawn. Like-named read-outs stand apart in the source and are kept apart here.

Tests used:
[1] = target: MELK (Homo sapiens, UniProt Q14680); test: Kinase assay: MELK activity, phosphorylation of FITC-labeled histone H3 peptide measured by IMAP fluorescence polarization; type: biochemical; settings: read-out: IC50 (μM) (kinase assay)
Summary of the method: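 Kinase reactions ran with or without test compound (final DMSO 1%) on a fluorescein-tagged H3 peptide. Progressive binding solution was added to terminate them. After a half-hour room-temperature incubation, polarization was measured.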

[2] = system: BT-549 cells; test: Cell-based assay: anti-proliferative activity, Cell Counting Kit-8, 72 hours (BT-549); settings: BT549 cells, MELK-expressing, Cell Counting Kit-8 at 72 hours
Description: To evaluate the expression status of MELK in several cell lines, western blot analysis was performed using crude cell lysate collected from those cells. Anti-MELK antibody (clone 31, BD Biosciences) was used to visualize the expression.
Active candidate inhibitors against MELK were evaluated for their target-specific cytotoxicity using T47D, A549, BT-549, and HT-1197 cells was used for negative control. 100 micro-L of cell suspension was seeded onto 96-well microtiter plate (ViewPlate-96FTC, PerkinElmer). The initial cell concentration of T47D, A549, BT-549, and HT-1197 were 3,000 cells/well, 2,000 cells/well and 2,500 cells/well, respectively. Cellular growth was determined using Cell Counting Kit-8 (DOJINDO) at 72 hours after the exposure of the candidate inhibitors. […] Accurate IC50 values were calculated as described previously.

[3] = system: T47D cells; test: Cell-based assay: anti-proliferative activity, Cell Counting Kit-8, 72 hours (T47D)
Summary of the method: (§1)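 First, lysates underwent western blotting with anti-MELK antibody to establish expression. Next, cells went into 96-well plates. Then candidate inhibitors were added. Finally, viability was determined by CCK-8 at 72 h and IC50 computed.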

[4] = system: A549 cells; test: Cell-based assay: anti-proliferative activity, Cell Counting Kit-8, 72 hours (A549)
Summary of the method: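 A549 cells were seeded in 96-well plates and exposed to candidate inhibitors for 72 hours. Cell growth was then measured with Cell Counting Kit-8, and IC50 values were calculated from the resulting growth data.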

[5] = system: HT-1197 cells; test: Cell-based assay: anti-proliferative activity, Cell Counting Kit-8, 72 hours (HT-1197, negative control without MELK expression)
Summary of the method: as §1

[6] = system: 22Rv1 cells; test: Cell-based assay: anti-proliferative activity, Cell Counting Kit-8, 72 hours (22Rv1); settings: Homo sapiens, 22Rv1, 72 h
[7] = system: DU4475 cells; test: Cell-based assay: anti-proliferative activity, Cell Counting Kit-8, 72 hours (DU4475); settings: Homo sapiens, DU-4475, 72 h
[8] = 50 micro-M ATP, FITC-labeled histone H3 peptide substrate, IMAP fluorescence polarization
[9] = Homo sapiens, T47D, 72 h, MELK-expressing, Cell Counting Kit-8 at 72 hours
[10] = Homo sapiens, A549, 72 h, MELK-expressing, Cell Counting Kit-8 at 72 hours
[11] = Homo sapiens, HT1197, 72 h, HT1197 cells, no MELK expression (negative control), Cell Counting Kit-8 at 72 hours
[12] = MELK-expressing, Cell Counting Kit-8 at 72 hours, dihydrochloride
[13] = Homo sapiens, A549, 72 h, 72 hours
[14] = Homo sapiens, HT1197, 72 h, HT1197 cells (negative control, no MELK expression), 72 hours

Sequence of MELK (Q14680 whole entry, looked up): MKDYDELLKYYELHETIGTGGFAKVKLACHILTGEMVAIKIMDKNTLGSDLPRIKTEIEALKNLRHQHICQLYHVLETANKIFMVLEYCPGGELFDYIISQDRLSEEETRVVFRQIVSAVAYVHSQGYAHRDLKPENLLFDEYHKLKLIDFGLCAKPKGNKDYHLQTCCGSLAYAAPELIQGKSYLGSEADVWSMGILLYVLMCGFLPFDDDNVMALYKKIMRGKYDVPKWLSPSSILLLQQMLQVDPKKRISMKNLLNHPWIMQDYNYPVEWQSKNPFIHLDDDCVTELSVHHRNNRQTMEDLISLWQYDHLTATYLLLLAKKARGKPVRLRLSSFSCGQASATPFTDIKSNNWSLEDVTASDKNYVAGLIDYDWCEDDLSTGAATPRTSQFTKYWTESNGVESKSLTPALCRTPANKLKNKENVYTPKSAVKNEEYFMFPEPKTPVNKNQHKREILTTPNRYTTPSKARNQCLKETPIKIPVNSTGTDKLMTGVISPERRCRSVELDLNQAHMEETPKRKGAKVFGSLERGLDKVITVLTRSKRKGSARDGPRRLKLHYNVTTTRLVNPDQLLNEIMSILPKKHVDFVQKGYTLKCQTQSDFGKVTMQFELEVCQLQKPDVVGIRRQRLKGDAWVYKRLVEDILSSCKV

Compound | IC50 [1, 8] [µM] | IC50 ([2]; Homo sapiens, BT-549, 72 h) [µM] | IC50 [3, 9] [µM] | IC50 [4, 10] [µM] | IC50 [5, 11] [µM] | also measured
CC(C1CCN(c2c(C(=O)C3CC3)cnc3ccc(-c4cc(F)c(O)c(F)c4)cc23)CC1)N(C)C (stereo not shown) [Example 181, Cyclopropyl[6-(3,5-difluoro-4-hydroxyphenyl)-4-{4-[1-(dimethylamino)ethyl]piperidin-1-yl}quinolin-3-yl]methanone] | 0.011 | 0.73 | 0.47 | 0.7 | 1.1 | –
CCN(CC)C1CCC(Nc2c(C(=O)C3CC3)cnc3ccc(-c4cc(Cl)c(O)c(OC)c4)cc23)CC1 (stereo not shown) [Example 185(a), {6-(3-Chloro-4-hydroxy-5-methoxyphenyl)-4-[4-(diethylamino)cyclohexylamino]quinolin-3-yl}(cyclopropyl)methanone] | 0.0026 | 2 | 0.59 | – | 6.9 | IC50 ([4]; MELK-expressing, Cell Counting Kit-8 at 72 hours): 0.42 µM
COc1cc(-c2ccc3ncc(C(=O)C4CC4)c(N[C@H]4CC[C@H](N(C)C)CC4)c3c2)ccc1O [Example 266, Cyclopropyl(4-((trans)-4-(dimethylamino)cyclohexylamino)-6-(4-hydroxy-3-methoxyphenyl)quinolin-3-yl)methanone] | 0.0016 | 0.94 | 0.29 | 0.37 | 3 | –
CCN(CC)C1CCC(Nc2c(C(=O)C3CC3)cnc3ccc(-c4ccc(O)c(OC)c4)cc23)CC1 (stereo not shown) [Example 193, Cyclopropyl{4-[4-(diethylamino)cyclohexylamino]-6-(4-hydroxy-3-methoxyphenyl)quinolin-3-yl}methanone] | 0.007 | 2 | 0.52 | 0.59 | 4.2 | –
CN(C)CC1CCN(c2c(C(=O)C3CC3)cnc3ccc(-c4cc(F)c(O)c(Cl)c4)cc23)CC1 [Example 347, [6-(3-Chloro-5-fluoro-4-hydroxyphenyl)-4-{4-[(dimethylamino)methyl]piperidin-1-yl}quinolin-3-yl](cyclopropyl)methanone] | 0.0024 | 0.62 | 0.42 | 0.48 | 1.8 | –
CCN(CC)C1CCC(Nc2c(C(=O)C3CC3)cnc3ccc(-c4ccc(O)c(Cl)c4)cc23)CC1 (stereo not shown) [Example 192, {6-(3-Chloro-4-hydroxyphenyl)-4-[4-(diethylamino)cyclohexylamino]quinolin-3-yl}(cyclopropyl)methanone] | 0.011 | 1.3 | 0.57 | 0.42 | 2.2 | –
CCOc1cc(-c2ccc3ncc(C(=O)C4CC4)c(N4CCC(CN(C)C)CC4)c3c2)ccc1O [Example 353, Cyclopropyl[4-{4-[(dimethylamino)methyl]piperidin-1-yl}-6-(3-ethoxy-4-hydroxyphenyl)quinolin-3-yl]methanone] | 0.0017 | 1.5 | 0.61 | 0.68 | 2.5 | –
COc1cc(-c2ccc3ncc(C(=O)C4CC4)c(NC[C@H]4CC[C@H](N(C)C)CC4)c3c2)cc(Cl)c1O [Example 315] | 0.0043 | 1.4 | 0.64 | 0.3 | 3 | –
CN(C)[C@H]1CC[C@H](CNc2c(C(=O)C3CC3)cnc3ccc(-c4cc(F)c(O)c(Cl)c4)cc23)CC1 [Example 327] | 0.0055 | 1 | 0.48 | 0.42 | 3 | –
COc1cc(-c2ccc3ncc(C(=O)C4CC4)c(NC45CC6CC(CC(N)(C6)C4)C5)c3c2)cc(Cl)c1O [Example 309, {6-(3-Chloro-4-hydroxy-5-methoxyphenyl)-4-[(3-amino)adamantylamino]quinolin-3-yl}(cyclopropyl)methanone] | 0.0087 | 0.49 | 0.32 | 0.28 | 0.5 | –
CN(C)[C@H]1CC[C@H](Nc2c(C(=O)C3CC3)cnc3cc(F)c(-c4cc(F)c(O)c(Cl)c4)cc23)CC1 [Example 295, {6-(3-Chloro-5-fluoro-4-hydroxyphenyl)-4-[trans-4-(dimethylamino)cyclohexylamino]-7-fluoroquinolin-3-yl}(cyclopropyl)methanone] | 0.027 | 0.39 | 0.42 | 0.31 | 1.2 | –
COc1cc(-c2ccc3ncc(C(C)=O)c(N[C@H]4CC[C@H](N)CC4)c3c2)cc(Cl)c1O [Example 259, 1-{4-[trans-4-Aminocyclohexylamino]-6-(3-chloro-4-hydroxy-5-methoxyphenyl)quinolin-3-yl}ethanone] | 0.0024 | 0.43 | 0.057 | 0.099 | 2.5 | –
O=C(c1cnc2ccc(-c3ccc(O)c(OC(F)(F)F)c3)cc2c1N1CCC(CN2CCCC2)CC1)C1CC1 [Example 313, Cyclopropyl{6-[4-hydroxy-3-(trifluoromethoxy)phenyl]-4-[4-(pyrrolidin-1-ylmethyl]piperidin-1-yl}quinolin-3-yl)methanone] | 0.012 | 1.3 | 0.67 | 0.8 | 3.2 | –
COc1cc(-c2ccc3ncc(C(=O)C4CC4)c(Nc4ccc(CN(C)C)cc4)c3c2)cc(Cl)c1O [Example 339] | 0.004 | 0.49 | 0.15 | 0.19 | 1.9 | –
CCN(CC)C1CCC(Nc2c(C(C)=O)cnc3ccc(-c4cc(Cl)c(O)c(OC)c4)cc23)CC1 (stereo not shown) [Example 303, 1-{6-(3-Chloro-4-hydroxy-5-methoxyphenyl)-4-[4-(diethylamino)cyclohexylamino]quinolin-3-yl}ethanone] | 0.0061 | 1.7 | 0.39 | 0.35 | 7.4 | –
CCN(CC)C1CCC(Nc2c(C(=O)C3CC3)cnc3ccc(-c4cc(Cl)c(O)c(OC)c4)cc23)CC1 (stereo not shown) [Example 185(b), {6-(3-Chloro-4-hydroxy-5-methoxyphenyl)-4-[4-(diethylamino)cyclohexylamino]quinolin-3-yl}(cyclopropyl)methanone dihydrochloride] | – | – | – | – | – | IC50 ([2]; dihydrochloride): 1 µM; IC50 [3, 12]: 0.49 µM; IC50 [4, 12]: 0.18 µM; IC50 ([5]; HT1197 cells, no MELK expression (negative control), Cell Counting Kit-8 at 72 hours, dihydrochloride): 4.7 µM
CC(C)CC(=O)c1cnc2ccc(-c3cc(Cl)c(O)c(Cl)c3)cc2c1N[C@H]1CC[C@H](N)CC1 [Example 267, 1-{4-[trans-4-Aminocyclohexylamino]-6-(3,5-dichloro-4-hydroxyphenyl)quinolin-3-yl}-3-methylbutan-1-one dihydrochloride] | 0.0022 | 0.72 | 0.14 | 0.38 | 3 | –
N[C@H]1CC[C@H](Nc2c(C(=O)C3CC3)cnc3ccc(-c4cc(Cl)c(O)cc4Cl)cc23)CC1 [Example 160, {4-[trans-4-Aminocyclohexylamino]-6-(2,5-dichloro-4-hydroxyphenyl)quinolin-3-yl}(cyclopropyl)methanone] | 0.072 | 0.39 | 0.28 | 0.68 | 1.2 | –
COc1cc(-c2ccc3ncc(C(=O)C4CC4)c(-c4ccc(CN(C)C)cc4)c3c2)cc(Cl)c1O [Example 356] | 0.0042 | 0.87 | 0.46 | 0.45 | 3.5 | –
CNC1CCN(c2ccc(Nc3c(C(C)=O)cnc4ccc(-c5cc(Cl)c(O)c(Cl)c5)cc34)cn2)C1 (stereo not shown) [Example 788, 1-(6-(3,5-dichloro-4-hydroxyphenyl)-4-((6-(3-(methylamino)pyrrolidin-1-yl)pyridin-3-yl)amino)quinolin-3-yl)ethanone trihydrochloride] | – | – | – | – | – | IC50 [1]: 0.0017 µM; IC50 ([3]; Homo sapiens, T47D, 72 h): 0.071 µM; IC50 [4, 13]: 0.16 µM; IC50 [5, 14]: 8.6 µM; IC50 [6]: 0.1 µM; IC50 [7]: 0.07 µM
CCC(=O)c1cnc2ccc(-c3cc(Cl)c(O)c(OC)c3)cc2c1Nc1ccc(N2CCC(N)C2)nc1 (stereo not shown) [Example 775, 1-(4-(6-(3-aminopyrrolidin-1-yl)pyridin-3-ylamino)-6-(3-chloro-4-hydroxy-5-methoxyphenyl)quinolin-3-yl)propan-1-one] | – | – | – | – | – | IC50 [1]: 0.0034 µM; IC50 ([3]; Homo sapiens, T47D, 72 h): 0.049 µM; IC50 [4, 13]: 0.049 µM; IC50 [5, 14]: 0.75 µM; IC50 [6]: 0.12 µM; IC50 [7]: 0.065 µM
